Source: PMC6535779, “A Specific, Glycomimetic Langerin Ligand for Human Langerhans Cell Targeting” (ACS Central Science, 2019)
Where two headings read alike, the source gives them in different places.

Experiments:
[1] = target: T1, Langerin extracellular domain (ECD) (Homo sapiens, UniProt Q9UJ71); test: 19F R2-filtered NMR reporter displacement assay with Langerin; type: binding; conditions: for Ki: 19F R2-filtered NMR, 0.1 mM reporter ligand 24, pH 7.8, 25 °C
T1 construct: the trimeric Langerin extracellular domain (ECD) was expressed insolubly in E; made in house
T1 sequence (Q9UJ71 65-328 limits assumed): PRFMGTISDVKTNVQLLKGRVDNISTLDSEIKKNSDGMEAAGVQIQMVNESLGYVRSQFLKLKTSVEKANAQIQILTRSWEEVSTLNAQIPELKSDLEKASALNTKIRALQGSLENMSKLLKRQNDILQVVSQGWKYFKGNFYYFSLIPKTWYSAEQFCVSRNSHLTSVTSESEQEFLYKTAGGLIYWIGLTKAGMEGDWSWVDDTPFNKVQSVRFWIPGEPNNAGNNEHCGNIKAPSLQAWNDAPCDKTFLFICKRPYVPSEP
Procedure: (§1) Receptor Expression and Purification
General remarks. Codon-optimized genes for the expression of Langerin and DC-SIGN in E. coli were purchased from GenScript and Life Technologies, respectively. All growth media or chemicals used for receptor expression and purification were purchased from Carl Roth if not stated otherwise.
Langerin extracellular domain. Expression and purification were conducted as previously published14. Briefly, the trimeric Langerin extracellular domain (ECD) was expressed insolubly in E. coli BL21* (DE3) (Invitrogen). Following enzymatic cell lysis, inclusion bodies were harvested and subsequently solubilized. The sample was centrifuged and the Langerin ECD was refolded overnight via rapid dilution. Next, the sample was dialyzed overnight, centrifuged and purified via mannan-agarose affinity chromatography (Sigma Aldrich). For 19F R2-filtered NMR and lipid-enzyme-linked lectin assay (Lipid-ELLA) experiments, the buffer was exchanged to 25 mM Tris with 150 mM NaCl and 5 mM CaCl2 at pH 7.8 using 7 kDa size-exclusion desalting columns (Thermo Scientific). For […]
D2O, 150 mM NaCl and 5 mM CaCl2 at pH 7. The concentration of Langerin ECD was determined via UV spectroscopy (A280, 0.1% = 2.45). Purity and monodispersity of Langerin ECD samples were analyzed via SDS PAGE and DLS. […]
General remarks. 19F R2-filtered NMR experiments were conducted on a PremiumCompact 600 MHz spectrometer (Agilent). Spectra were processed in MestReNova and data analysis was performed with OriginPro 13, 15. Experiments with the Langerin ECD were performed at a receptor concentration of 50 μM in 25 mM Tris with 10% D2O, 150 mM NaCl and 5 mM CaCl2 at pH 7.8 and 25° C. […]
10% D2O, 150 mM NaCl and 5 mM CaCl2 at pH 7.0 and 25°C. TFA served as an internal reference at a concentration of 50 μM. Apparent relaxation rates R2,obs for the reporter ligand were determined using the CPMG pulse sequence as previously published3-5. […]
(§2) KI determination. KI values were determined as previously published for Langerin3. Briefly, titration experiments were conducted at a concentration of 0.1 mM of reporter ligand 24 at five competitor concentrations [I]T. Samples were prepared via serial dilution. For the acids GlcNS, GlcNAc-6-OS and GlcNS-6-OS the pH values were monitored and adjusted to 7.8 if necessary.
(§3) General remarks. 15N HSQC NMR experiments were conducted on an Ascend 700 MHz spectrometer (Bruker)16. Spectra were processed in NMRPipe17. Data analysis was performed using CCPN Analysis, MatLab and OriginPro15, 18-19. Experiments with the Langerin CRD were performed at a receptor concentration of 100 μM in 25 mM HEPES with 10% D 2O, 150 mM NaCl and 5 mM CaCl2 at pH 7.8 and 25° C. DSS-d6 served as an internal reference at a concentration of 100 μM. Spectra were referenced via the internal spectrometer reference. Spectra were acquired with 128 increments and 32 scans per increments for 150 μl samples in 3 mm sample tubes. The relaxation delay d1 was set to 1.4 s and the acquisition time tacq was set to 100 ms. The W5 Watergate pulse sequence was used for solvent suppression20. The used resonance assignment for the Langerin CRD has been published […]
(§4) KD determination. KD values were determined in titration experiments at six ligand concentrations [L]T. Samples were prepared via serial dilution. Chemical shift perturbations CSPs for Langerin CRD resonances in the fast or fast-to-intermediate exchange regime observed upon titration with ligand were calculated via Equation 121.

Langerin CRD = target: T2, Langerin CRD (Homo sapiens, UniProt Q9UJ71); test: 15N HSQC NMR titration, KD determination; type: binding
T2 construct: made in house
T2 sequence (Q9UJ71 202-320 limits assumed): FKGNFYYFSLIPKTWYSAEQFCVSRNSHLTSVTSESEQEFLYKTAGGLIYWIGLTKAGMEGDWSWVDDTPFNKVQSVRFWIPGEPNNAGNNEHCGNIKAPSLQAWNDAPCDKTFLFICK
Procedure: as §1
General remarks. Codon-optimized genes for the expression of Langerin and DC-SIGN in E. coli were purchased from GenScript and Life Technologies, respectively. All growth media or chemicals used for receptor expression and purification were purchased from Carl Roth if not stated otherwise. […]
Langerin and DC-SIGN carbohydrate recognition domain. Expression and purification were conducted as previously published14. Briefly, the monomeric 15N-labeled Langerin and DC-SIGN carbohydrate recognition domains (CRDs) were expressed insolubly in E. coli BL21* (DE3) (Invitrogen). Following enzymatic cell lysis, inclusion bodies were harvested and subsequently solubilized. The sample was centrifuged and the Langerin and DC-SIGN CRDs were refolded overnight via rapid dilution. Next, the sample was dialyzed overnight, centrifuged and purified via StrepTactin affinity chromatography (Iba). After an additional dialysis step overnight, the sample was centrifuged and the buffer was exchanged to 25 mM HEPES with 150 mM NaCl at pH 7.0 using 7 kDa size-exclusion desalting columns (Thermo Scientific) for 19F R2-filtered and 15N HSQC NMR experiments. The concentration of Langerin and DC -SIGN CRDs was determined via UV spectroscopy (A280, 0.1% = 3.19 and A280, 0.1% = 2.98). Purity and monodispersity of Langerin and DC - SIGN CRD samples were analyzed via SDS PAGE and DLS. […]
as §2, §3, §4
A standard deviation σ of 0.02 ppm was previously determined for the measurement of chemical shifts in 15N HSQC NMR experiments with the Langerin CRD1. Accordingly, only assigned resonances that […]
for the determination of KD values via Equation 2 in a global two parameter fit21. Standard errors were derived directly from the fitting procedures.
Δv0.5 larger than 10 Hz upon titration in either the 1H or the 15N dimension were not considered for the determination of KD values. CSPmax represents the CSP value observed upon saturation of the binding […]

[2] = calculated utilizing the KI value determined for 21
[3] = CSPs of fast-exchanging resonances, read-out: KD, Langerin (KD,fast)
[4] = from integrals V of resonances in slow exchange, read-out: KD, Langerin (KD,slow)

Ki [1] [µM] | Relative potency, Langerin [1, 2] | Relative potency, Langerin ([1]; calculated utilizing the KI value determined for GlcNAc) | affinity increase over GlcNAc ([1]; from KI values, Langerin) [fold] | Kd (Langerin CRD; [3]) [µM] | Kd (Langerin CRD; [4]) [µM] | affinity increase over Man-based reference molecule 21 ([1]; from KI values, Langerin, b47 words it as over natural glycans) [fold] | SMILES
320 ± 50 | 31 | 13 | 13 | 460 ± 40 | 500 ± 200 | – | Cc1ccc(S(=O)(=O)N[C@H]2C(O)O[C@H](CO)[C@@H](O)[C@@H]2O)cc1 (some centres unmarked) [compound 2]
240 ± 30 | 42 | – | – | 230 ± 70 | 300 ± 100 | 42 | CC(=O)NCCO[C@@H]1O[C@H](CO)[C@@H](O)[C@H](O)[C@H]1NS(=O)(=O)c1ccc(C)cc1 [compound 16]
10000 ± 1000 | 1.0 | – | – | 12000 ± 1000 | – | – | CC(=O)NCCO[C@H]1O[C@H](CO)[C@@H](O)[C@H](O)[C@@H]1O [compound 21]
